Assay results from US20040106150A1, “Inverse labeling method for the rapid identification of marker/target proteins” (priority 2000, published 2004).
Entries after “also recorded” stand apart in the source; their conditions may differ.

Experiments:
HCT116 cells = assay: Inverse labeling-MS phosphorylation analysis of HCT116 cell lysate treated with Raf inhibitor; type: cell-based, Human; conditions: for Change (treated/control) / Change (treated/control), % down: HCT116 cells, 20 μM, 1.5 hours vs DMSO control
Description: Human colorectal cell line HCT116 cells are grown in 6-well plates. Prior to harvesting, the cells are treated with 20 μM of the Raf inhibitor BPMI and DMSO control for 1.5 hours, respectively. Cells are then rinsed with PBS, and lysed for 5 mintues at 4° C. in Doriano lysis buffer with 100 μg/mL Perfabloc/2 μg/mL aprotinin/2 μg/mL leupeptin/1 mM NaVO4/10 mM NaF. The supernatant of the lysates are collected after centrifugation at 3,000 rpm for 5 minutes. The protein concentration is determined using Bio-Rad reagent, and the lysates are frozen at −80° C. prior to further processing and analysis.
One μL of RNase A (20 mg/mL, Sigma, St Louis, Mo.) and 1 μL of RNase T1 (10 units/mL, Invitrogen, Carlsbad, Calif.) are added to each 1 mL of lysates (total 3 mg of HCT116-DMSO control and 3 mg of HCT116-BPMI, respectively), and incubated at 37° C. for half an hour to degrade RNAs. Proteins are denatured using 6 M guanidine HCl, followed by reduction with 20 mM 1,4-dithio-DL-threitol (DTT) at 58° C. for 40 minutes and alkylation with 40 mM iodoacetamide at room temperature for 30 minutes in the dark. Each protein solution is transferred to a Slide-A-Lyzer ( 10,000 MW cutoff, Pierce, Rockford, Ill.) dialysis cassette and dialyzed against 2 to 0 M urea/50 mM ammonium bicarbonate to remove small molecule impurities and buffer exchange to 50 mM ammonium bicarbonate. Proteolysis is carried out using modified, sequencing grade trypsin (Promega, Madison, Wis.) at a 1:200 trypsin-to-protein ratio (wt:wt) in 50 mM ammonium bicarbonate at 37° C. overnight.
The peptide digests are filtered through Centricon Filters (10,000 MW cutoff, Millipore, Bedford, Mass.) to remove large molecule impurities including detergents. Flow-through (peptides) is collected. Solvent and ammonium bicarbonate are subsequently removed by SpeedVac drying.
d0- or d3-methanolic HCl (2 M) (methyl esterification reagent) is prepared by adding 160 μL of acetyl chloride to 1 mL of anhydrous d0-methyl alcohol or d3-methyl d-alcohol drop wise while stirring. After 10 minutes, 1 mL of the methyl esterification reagent is added to 1.5 mg of lyophilized peptide mixture. The reaction is performed in parallel to two identical aliquots for every sample, one using d0-reagent and one using d3-reagent, respectively. The reaction is allowed to proceed at room temperature for 30 minutes. The excess reagents are removed by SpeedVac drying. Subsequently the peptide mixtures are reconstituted with water. The inverse labeling is achieved by mixing d0-control with d3-treated (BPMI) and d3-control with d0-treated.
Enrichment of phosphopeptides is performed on a 2.1×30 mm IMAC column (POROS 20 MC, Applied Biosystems, Foster City, Calif.). Briefly, the column is washed with water, 100 mM EDTA in 1 M NaCl, followed by water and 1% acetic acid. The column is then activated with 100 mM FeCl3. The SpeedVac dried, 1 mg of the inversely-labeled methyl esterified peptide mixture (500 μg each form of d0 and d3) is dissolved in 1% acetic acid in 50% acetonitrile/water, and loaded onto iron-activated IMAC column. The unbound peptides are removed by washing with 1% acetic acid in 50% acetonitrile/water ([…]). The bound phosphopeptides are eluted with 2% ammonium hydroxide in 50% acetonitrile/water. Acetic acid is added to neutralize the eluent prior to SpeedVac drying. The phosphopeptide mixture is reconstituted with 0.1% formic acid and analyzed using capillary LC/MS, as described below.
An Ultimate capillary/nano HPLC system (LC Packings, San Francisco, Calif.) with a Swichos micro column-switching module (LC Packings, San Francisco, Calif.) is used for analysis. Separation is carried out on a 0.18×50 mm capillary column, packed with 3 μm C18 stationary phase of 300-Å pore size (PepMap, LC Packings, San Francisco, Calif.), operating at a flow rate of 2 μL/min. Mobile phase A consists of 0.1% (v/v) formic acid in water and mobile phase B of 0. 1% (v/v) formic acid in acetonitrile. […]

tumor tissue DU145 = assay: Inverse labeling-MS phosphorylation analysis of tissue lysate of mouse tumor xenograft (tumor tissue DU145), in vivo study; design: Change (treated/control), % down: concentration or dose not given beside the values; conditions: for Change (treated/control) / Change (treated/control), % down: tumor tissue, 1 hour treatment
Description: The phosphoproteome mapping method is further tested/applied to an in vivo study of the Raf inhibitor, BPMI (1-hour treatment) in the analysis of tissue lysate of mouse tumor xenograft. […] Although the usual 1 mg of lysate is processed and IMAC enriched, considering the overwhelming blood protein contamination, the actual amount of tissue lysate proteins in the sample is a lot less. For that reason, only 0.05% β-casein is spiked into each tissue lysate sample as internal standard. The methyl esterification/IMAC procedure is successful in removing the blood contamination from the tissue samples. As shown in FIG. 15 (B), inverse labeling-MS analysis after IMAC enrichment clearly detects the down-regulation of Ser^25 phosphorylation of oncoprotein 18, confirming the finding of the cellular studies. Additional changes in phosphorylation are also detected which includes oncogene EMS1, mouse fetuin and Epithelial-cadherin (see Table 3).

[1] = phosphopeptide ASGQAFELILpSPR, Oncoprotein 18
[2] = phosphopeptide IEpSPKLER, Heat-shock 110 kD protein
[3] = phosphopeptide LPpSSPVYEDAASFK, Oncogene EMS1
[4] = phosphopeptide RLpSPSApSPPR, Ser/Arg-related nuclear matrix protein
[5] = phosphopeptide SKESVPEFPLpSPPK, Oncoprotein 18
[6] = phosphopeptide pTQTPPVpSPAPQPTEER, Oncogene EMS1
[7] = phosphopeptide MRDWVIPPIpSCPENEK, Epithelial-cadherin (mouse/human)
[8] = phosphopeptide VoxMHTQCHSTPDpSAEDVR, Mouse fetuin

## CC(C)(C)c1ccc(Nc2ncc(Cc3ccncc3)c3ccccc23)cc1 [BPMI, 1-(4-t-butylanilino)-4-[(pyridin-4-yl)-methyl]-isoquinoline]
HCT116 cells; HCT116 cell lysate, treated vs control
  OP18 (oncoprotein 18) Ser25 phosphorylation: significantly down-regulated; also recorded: Down-regulation
HCT116 cells; [1]
  Change (treated/control): 0.4
  Change (treated/control), % down: 60%
HCT116 cells; [2]
  Change (treated/control): 0.7
  Change (treated/control), % down: 30%
HCT116 cells; [3]
  Change (treated/control): 0.8
  Change (treated/control), % down: 20%
HCT116 cells; [4]
  Change (treated/control): 0.7
  Change (treated/control), % down: 30%
HCT116 cells; [5]
  Change (treated/control): 0.6
  Change (treated/control), % down: 40%
HCT116 cells; [6]
  Change (treated/control): 0.8
  Change (treated/control), % down: 20%
Tumor tissue DU145; in vivo, tumor tissue DU145, 1-hour treatment
  Ser25 phosphorylation of oncoprotein 18 (OP18): down-regulation
Tumor tissue DU145; [1]
  Change (treated/control): 0.4
  Change (treated/control), % down: 60%
Tumor tissue DU145; [3]
  Change (treated/control): 0.7
  Change (treated/control), % down: 30%
Tumor tissue DU145; [7]
  Change (treated/control): 0.5
  Change (treated/control), % down: 50%
Tumor tissue DU145; [5]
  Change (treated/control): 0.8
  Change (treated/control), % down: 20%
Tumor tissue DU145; [8]
  Change (treated/control): 0.6
  Change (treated/control), % down: 40%
Tumor tissue DU145; [6]
  Change (treated/control): 0.6
  Change (treated/control), % down: 40%
